Experimental data published in paper PMC9090415, “Discovery of small molecule inhibitors of Plasmodium falciparum apicoplast DNA polymerase” (Journal of Enzyme Inhibition and Medicinal Chemistry, 2022).
pIC50: −log10 of the molar value.

Target: P. falciparum apicoplast DNA polymerase (Pf-apPOL) (Plasmodium falciparum, UniProt Q8ILY1)
Assay: Fluorescence-based high-throughput DNA polymerase assay (molecular beacon), primary screen and dose-response;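 on % inhibition ApPOL 90': test concentration in µM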;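 on % inhibition apPOL 180': test concentration in µM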
Format: biochemical
Conditions: for DNA Pol: 90 min, 10 µM; for pIC50: supplemental file 2, sheet IC50 nontoxic compounds, Pf-apPOL
Procedure, shortened: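 Single-point screening used 10 µM compound with 20 nM polymerase, 20 nM hairpin substrate and 6 µM dNTPs for 90 min at 25 °C. Confirmatory titrations (2.5–80 µM) followed fluorescence at three times, and IC50 was derived from a fit including a cooperativity term n.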

[1] = primary screen value of the 186 hits, unit not given
[2] = primary screen value, head "DNA Pol", unit not given

Sequence of P. falciparum apicoplast DNA polymerase (Pf-apPOL) (Q8ILY1 entry or part of it): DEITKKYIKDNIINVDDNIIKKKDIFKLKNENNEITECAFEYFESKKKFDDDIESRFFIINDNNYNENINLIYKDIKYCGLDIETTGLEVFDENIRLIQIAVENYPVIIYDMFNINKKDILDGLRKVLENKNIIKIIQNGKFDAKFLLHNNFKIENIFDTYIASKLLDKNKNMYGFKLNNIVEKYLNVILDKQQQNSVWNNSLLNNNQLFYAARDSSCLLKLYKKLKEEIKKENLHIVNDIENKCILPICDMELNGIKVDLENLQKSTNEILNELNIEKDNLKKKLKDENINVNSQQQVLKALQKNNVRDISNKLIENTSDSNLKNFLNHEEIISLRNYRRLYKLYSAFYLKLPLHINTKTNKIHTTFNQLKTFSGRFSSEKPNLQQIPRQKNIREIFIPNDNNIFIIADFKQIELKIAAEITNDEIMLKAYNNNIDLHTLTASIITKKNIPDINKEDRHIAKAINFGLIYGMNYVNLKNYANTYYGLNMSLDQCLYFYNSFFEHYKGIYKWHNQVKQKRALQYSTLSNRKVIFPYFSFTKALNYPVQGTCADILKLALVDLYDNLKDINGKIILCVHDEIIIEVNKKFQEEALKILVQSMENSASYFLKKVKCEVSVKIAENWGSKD

Structure (SMILES): OC(C#Cc1ccccc1)c1ccco1 (stereo not shown) [Molecule 95, OC(c1ccco1)C#Cc1ccccc1]
- % inhibition Apo pol 10' (DRC-1, concentration 2.5): 31.3113%
- % inhibition Apo pol 10' (DRC-1, concentration 5): 57.2957%
- % inhibition Apo pol 10' (DRC-1, concentration 10): 77.3144%
- % inhibition Apo pol 10' (DRC-1, concentration 20): 80.9257%
- % inhibition Apo pol 10' (DRC-1, concentration 40): 79.5386%
- % inhibition Apo pol 10' (DRC-1, concentration 80): 69.6909%
- % inhibition Apol 90' (DRC-1, 90', concentration 2.5): 17.4442%
- % inhibition Apol 90' (DRC-1, 90', concentration 5): 42.0165%
- % inhibition Apol 90' (DRC-1, 90', concentration 10): 68.6484%
- % inhibition Apol 90' (DRC-1, 90', concentration 20): 80.4558%
- % inhibition Apol 90' (DRC-1, 90', concentration 40): 83.9315%
- % inhibition Apol 90' (DRC-1, 90', concentration 80): 80.7801%
- % inhibition apPOL 180' (DRC-1, 180', concentration 2.5): 5.809%
- % inhibition apPOL 180' (DRC-1, 180', concentration 5): 25.3082%
- % inhibition apPOL 180' (DRC-1, 180', concentration 10): 55.1933%
- % inhibition apPOL 180' (DRC-1, 180', concentration 20): 73.4768%
- % inhibition apPOL 180' (DRC-1, 180', concentration 40): 83.0192%
- % inhibition apPOL 180' (DRC-1, 180', concentration 80): 83.0007%
- % inhibition Apol 40' (DRC-2, 40', concentration 10 (unit not given)): 60%
- % inhibition Apol 40' (DRC-2, 40', concentration 20 (unit not given)): 62%
- % inhibition ApPOL 90' (DRC-2, 90', concentration 10 (unit not given)): 62%
- % inhibition ApPOL 90' (DRC-2, 90', concentration 20 (unit not given)): 67%
- % inhibition ApPOL 90' (DRC-2, 90', concentration 40 (unit not given)): 66%
- % inhibition ApPOL 90' (DRC-2, 90', concentration 80 (unit not given)): 60%
- % inhibition apPOL 180' (DRC-2, 180', concentration 20 (unit not given)): 66%
- % inhibition apPOL 180' (DRC-2, 180', concentration 80 (unit not given)): 67%
- % inhibition Apo pol 5' (DRC-2, concentration 2.5): 14%
- % inhibition Apo pol 5' (DRC-2, concentration 5): 32%
- % inhibition Apo pol 5' (DRC-2, concentration 10): 39%
- % inhibition Apo pol 5' (DRC-2, concentration 20): 34%
- % inhibition Apo pol 5' (DRC-2, concentration 40): 22%
- % inhibition Apo pol 5' (DRC-2, concentration 80): -5%
- % inhibition Apol 40' (DRC-2, 40', concentration 2.5): 15%
- % inhibition Apol 40' (DRC-2, 40', concentration 5): 44%
- % inhibition Apol 40' (DRC-2, 40', concentration 10): 60%
- % inhibition Apol 40' (DRC-2, 40', concentration 20): 62%
- % inhibition Apol 40' (DRC-2, 40', concentration 40): 59%
- % inhibition Apol 40' (DRC-2, 40', concentration 80): 48%
- % inhibition ApPOL 90' (DRC-2, 90', concentration 2.5): 12%
- % inhibition ApPOL 90' (DRC-2, 90', concentration 5): 41%
- % inhibition ApPOL 90' (DRC-2, 90', concentration 10): 62%
- % inhibition ApPOL 90' (DRC-2, 90', concentration 20): 67%
- % inhibition ApPOL 90' (DRC-2, 90', concentration 40): 66%
- % inhibition ApPOL 90' (DRC-2, 90', concentration 80): 60%
- % inhibition apPOL 180' (DRC-2, 180', concentration 2.5): 4.25%
- % inhibition apPOL 180' (DRC-2, 180', concentration 5): 30%
- % inhibition apPOL 180' (DRC-2, 180', concentration 10): 58%
- % inhibition apPOL 180' (DRC-2, 180', concentration 20): 66%
- % inhibition apPOL 180' (DRC-2, 180', concentration 40): 71%
- % inhibition apPOL 180' (DRC-2, 180', concentration 80): 67%
- DNA Pol [1]: 70
- DNA Pol [2]: 70

Structure (SMILES): O=C(Nc1c2c(nn1-c1ccc(Oc3ccccc3)cc1)CSC2)c1ccco1 [KU0055927]
- % inhibition Apo pol 10' (DRC-1, concentration 2.5): 13.8958%
- % inhibition Apo pol 10' (DRC-1, concentration 5): 29.5283%
- % inhibition Apo pol 10' (DRC-1, concentration 10): 43.1911%
- % inhibition Apo pol 10' (DRC-1, concentration 20): 76.7664%
- % inhibition Apo pol 10' (DRC-1, concentration 40): 85.1313%
- % inhibition Apo pol 10' (DRC-1, concentration 80): 86.5336%
- % inhibition Apol 90' (DRC-1, 90', concentration 2.5): 4.683%
- % inhibition Apol 90' (DRC-1, 90', concentration 5): 16.7633%
- % inhibition Apol 90' (DRC-1, 90', concentration 10): 30.4357%
- % inhibition Apol 90' (DRC-1, 90', concentration 20): 68.2983%
- % inhibition Apol 90' (DRC-1, 90', concentration 40): 80.3407%
- % inhibition Apol 90' (DRC-1, 90', concentration 80): 86.0743%
- % inhibition apPOL 180' (DRC-1, 180', concentration 2.5): -2.927%
- % inhibition apPOL 180' (DRC-1, 180', concentration 5): 5.714%
- % inhibition apPOL 180' (DRC-1, 180', concentration 10): 15.8435%
- % inhibition apPOL 180' (DRC-1, 180', concentration 20): 54.9886%
- % inhibition apPOL 180' (DRC-1, 180', concentration 40): 72.0227%
- % inhibition apPOL 180' (DRC-1, 180', concentration 80): 82.6026%
- % inhibition Apol 40' (DRC-2, 40', concentration 5 (unit not given)): 12%
- % inhibition Apol 40' (DRC-2, 40', concentration 40 (unit not given)): 69%
- % inhibition apPOL 180' (DRC-2, 180', concentration 40 (unit not given)): 69%
- % inhibition Apo pol 5' (DRC-2, concentration 2.5): 8.44%
- % inhibition Apo pol 5' (DRC-2, concentration 5): 12%
- % inhibition Apo pol 5' (DRC-2, concentration 5 (unit not given)): 12%
- % inhibition Apo pol 5' (DRC-2, concentration 10): 40%
- % inhibition Apo pol 5' (DRC-2, concentration 20): 51%
- % inhibition Apo pol 5' (DRC-2, concentration 40): 54%
- % inhibition Apo pol 5' (DRC-2, concentration 80): 55%
- % inhibition Apol 40' (DRC-2, 40', concentration 2.5): 9%
- % inhibition Apol 40' (DRC-2, 40', concentration 5): 12%
- % inhibition Apol 40' (DRC-2, 40', concentration 10): 47%
- % inhibition Apol 40' (DRC-2, 40', concentration 20): 65%
- % inhibition Apol 40' (DRC-2, 40', concentration 40): 69%
- % inhibition Apol 40' (DRC-2, 40', concentration 80): 72%
- % inhibition ApPOL 90' (DRC-2, 90', concentration 2.5): 7%
- % inhibition ApPOL 90' (DRC-2, 90', concentration 5): 9.5%
- % inhibition ApPOL 90' (DRC-2, 90', concentration 10): 45%
- % inhibition ApPOL 90' (DRC-2, 90', concentration 20): 66%
- % inhibition ApPOL 90' (DRC-2, 90', concentration 40): 71%
- % inhibition ApPOL 90' (DRC-2, 90', concentration 80): 75%
- % inhibition apPOL 180' (DRC-2, 180', concentration 2.5): 4%
- % inhibition apPOL 180' (DRC-2, 180', concentration 5): 3.19%
- % inhibition apPOL 180' (DRC-2, 180', concentration 10): 35%
- % inhibition apPOL 180' (DRC-2, 180', concentration 20): 62%
- % inhibition apPOL 180' (DRC-2, 180', concentration 40): 69%
- % inhibition apPOL 180' (DRC-2, 180', concentration 80): 77%
- DNA Pol [1]: 57
- DNA Pol [2]: 57

Structure (SMILES): O=C1Nc2ccc(I)cc2C1=Cc1cc(Br)c(O)c(Br)c1 [Molecule 27, Ic1ccc2c(c1)C(=Cc1cc(Br)c(c(c1)Br)O)C(=O)N2]
- DNA Pol ('DNA Pol' of the 186 hits list (screen value)): 52
- % inhibition Apo pol 10' (DRC-1, conc 2.5): -2.766%
- % inhibition Apo pol 10' (DRC-1, conc 5): 14.7903%
- % inhibition Apo pol 10' (DRC-1, conc 10): 55.8319%
- % inhibition Apo pol 10' (DRC-1, conc 20): 68.6495%
- % inhibition Apo pol 10' (DRC-1, conc 40): 74.9605%
- % inhibition Apo pol 10' (DRC-1, conc 80): 94.5024%
- % inhibition Apol 90' (DRC-1, 90', conc 2.5): -5.207%
- % inhibition Apol 90' (DRC-1, 90', conc 5): 5.358%
- % inhibition Apol 90' (DRC-1, 90', conc 10): 51.0216%
- % inhibition Apol 90' (DRC-1, 90', conc 20): 63.6894%
- % inhibition Apol 90' (DRC-1, 90', conc 40): 72.1753%
- % inhibition Apol 90' (DRC-1, 90', conc 80): 93.708%
- % inhibition apPOL 180' (DRC-1, 180', conc 2.5): -6.922%
- % inhibition apPOL 180' (DRC-1, 180', conc 5): 0.7186%
- % inhibition apPOL 180' (DRC-1, 180', conc 10): 40.1564%
- % inhibition apPOL 180' (DRC-1, 180', conc 20): 53.0871%
- % inhibition apPOL 180' (DRC-1, 180', conc 40): 65.7742%
- % inhibition apPOL 180' (DRC-1, 180', conc 80): 93.2975%
- % inhibition Apo pol 5' (DRC-2, conc 2.5): -1.67%
- % inhibition Apo pol 5' (DRC-2, conc 5): 2.85%
- % inhibition Apo pol 5' (DRC-2, conc 10): 38%
- % inhibition Apo pol 5' (DRC-2, conc 20): 54%
- % inhibition Apo pol 5' (DRC-2, conc 40): 54%
- % inhibition Apo pol 5' (DRC-2, conc 80): 54%
- % inhibition Apo pol 5' (DRC-2, concentration 20): 54%
- % inhibition Apo pol 5' (DRC-2, concentration 40): 54%
- % inhibition Apo pol 5' (DRC-2, concentration 80): 54%
- % inhibition Apol 40' (DRC-2, 40', conc 2.5): 0.385%
- % inhibition Apol 40' (DRC-2, 40', conc 5): 11%
- % inhibition Apol 40' (DRC-2, 40', conc 10): 48%
- % inhibition Apol 40' (DRC-2, 40', conc 20): 68%
- % inhibition Apol 40' (DRC-2, 40', conc 40): 71%
- % inhibition Apol 40' (DRC-2, 40', conc 80): 72%
- % inhibition Apol 40' (DRC-2, 40', concentration 5): 11%
- % inhibition Apol 40' (DRC-2, 40', concentration 10): 48%
- % inhibition Apol 40' (DRC-2, 40', concentration 80): 72%
- % inhibition ApPOL 90' (DRC-2, 90', conc 2.5): 2.27%
- % inhibition ApPOL 90' (DRC-2, 90', conc 5): 11%
- % inhibition ApPOL 90' (DRC-2, 90', conc 10): 48%
- % inhibition ApPOL 90' (DRC-2, 90', conc 20): 70%
- % inhibition ApPOL 90' (DRC-2, 90', conc 40): 74%
- % inhibition ApPOL 90' (DRC-2, 90', conc 80): 76%
- % inhibition ApPOL 90' (DRC-2, 90', concentration 5): 11%
- % inhibition ApPOL 90' (DRC-2, 90', concentration 10): 48%
- % inhibition ApPOL 90' (DRC-2, 90', concentration 80): 76%
- % inhibition apPOL 180' (DRC-2, 180', conc 2.5): 0.56%
- % inhibition apPOL 180' (DRC-2, 180', conc 5): 6%
- % inhibition apPOL 180' (DRC-2, 180', conc 10): 40%
- % inhibition apPOL 180' (DRC-2, 180', conc 20): 67%
- % inhibition apPOL 180' (DRC-2, 180', conc 40): 72%
- % inhibition apPOL 180' (DRC-2, 180', conc 80): 76%
- % inhibition apPOL 180' (DRC-2, 180', concentration 40): 72%
- % inhibition apPOL 180' (DRC-2, 180', concentration 80): 76%
- DNA Pol (primary screen value, "DNA Pol"): 52

Structure (SMILES): O=C(CSc1nnc(-c2ccncc2)[nH]1)c1ccc(O)c(O)c1 [Molecule 89]
- pIC50: > 5.60

Structure (SMILES): CN(C)C=CC(=O)c1ccccn1 [Molecule 64]
- pIC50: 4.73
